Experiments:
[1] = biological target: T1, hERG potassium channel (Homo sapiens, UniProt Q12809); assay: hERG potassium channel inhibitory activity test (Qpatch, CHO-hERG cells); type: cell-based; conditions: highest test concentration 40 μM, read-out: hERG (μM), inhibition at multiple concentrations on hERG current
T1 construct: expressed in transfected cells; host or cells: CHO-hERG cells
Experimental: 7.1.1 CHO-hERG cells were cultured in a 175 cm^2 flask, when the cell density reached 60-80%, the culture medium was removed, the cells were washed with 7 mL PBS, and then digested with 3 mL Detachin. 7.1.2 After complete digestion, 7 mL culture medium was added to neutralize, then the mixture was centrifuged, the supernatant was aspirated, and then 5 mL culture medium was added to re-suspend, ensuring 2-5×10^6/mL of cell density.
The process of single cell high impedance sealing and whole cell mode formation were all automatically completed by Qpatch instrument, after obtaining the whole cell recording mode, the cells were clamped at −80 mV, before giving a 5-second +40 mV depolarization stimulus, a 50 millisecond −50 mV prevoltage was given first, and then repolarized to −50 mV for 5 seconds, then returned to −80 mV. This voltage stimulation was applied every 15 seconds and recorded for 2 minutes before giving extracellular fluid recordings for 5 minutes, and then the administration process was started, the compound concentration was given from the lowest test concentration, each test concentration was given for 2.5 minutes, and the positive control compound 3 μM of Cisapride was given after all concentrations were continuously given. At least 3 cells (n≥3) were tested at each concentration.
7.4.1 20 mM of compound mother liquor was diluted with extracellular fluid, 5 μL of 20 mM compound mother liquor was added into 2495 μL of extracellular fluid and diluted 500-fold to 40 μM, and then the final concentration to be tested was obtained by sequential 3-fold serial dilutions in extracellular solution containing 0.2% DMSO. 7.4.2 The highest test concentration was 40 μM, in a total of 6 concentrations of 40, 13.33, 4.44, 1.48, 0.49 and 0.16 μM respectively. 7.4.3 The content of DMSO in the final test concentration was not more than 0.2%, and this concentration of DMSO had no effect on hERG potassium channel.
The experimental data were analyzed by XLFit software. […]

[2] = Plasma stability, human plasma; type: in vitro ADME; conditions: human, 0.5 μM
Experimental: (§1) Animal or human whole blood was collected, then the blood was put into a test tube containing anticoagulant, centrifuged at 3500 rpm for 10 min, and the upper layer of pale yellow plasma was collected. • 2) 10 μM of tested compound (m/M/V=C)
(§2) The compound was weighed, the stock solution was prepared with DMSO and the working solution was prepared with 100 mM phosphate buffer. • 3) 10 μM of positive control • (1) Propantheline (Propantheline Mr=449.4 Da)
(§3) • 1) 285 μL of plasma and 15 μL of 10 μM compound (tested compound) were added in turn in a 96-well plate, and incubated at 37° C. • 2) 40 μL was taken out at 0, 15, 30, 60, 90, 120 min, respectively, and 160 μL of acetonitrile termination solution containing internal standard was added. • 3) After centrifugation (3500 rpm, 10 min), 50 μL of supernatant was taken out, and then diluted with 50 μL DDH2O and injected to LC-MS/MS.
(§4) • instrument: Shimadzu LC-20 AD • chromatographic column: phenomenex Gemiu® C18 (50*4.6 mm, 5 μM particle size); • mobile phase: A: acetonitrile, B: 0.1% formic acid solution 0-8 min: 5% A→95% A, 2.0-2.1 min: 90% A→5% A; flow rate: 0.8 mL/min; running time: 5.0 min; injection volume: 5 μL.
(§5) • instrument: API4000 Liquid Chromatography-Mass Spectrometry, AB, USA; • the ion source was electrospray ionization source (ESI); • the temperature of dry gas (N2) was 500° C.; • electrospray voltage was 5500V; • the detection method was positive ion detection; • the scanning mode was selective response monitoring (MRM); • the scanning time was 0.1 s.

[3] = Plasma stability, rat plasma; type: in vitro ADME; conditions: rat plasma, 37° C.
Experimental: as §1, §2, §3, §4, §5

[4] = Plasma stability, mouse plasma; type: in vitro ADME; conditions: mouse plasma, 37° C.
Experimental: as §1, §2, §3, §4, §5

[5] = Plasma stability, dog plasma; type: in vitro ADME; conditions: dog plasma, 37° C.
Experimental: as §1, §2, §3, §4, §5

T1 sequence (Q12809 whole entry): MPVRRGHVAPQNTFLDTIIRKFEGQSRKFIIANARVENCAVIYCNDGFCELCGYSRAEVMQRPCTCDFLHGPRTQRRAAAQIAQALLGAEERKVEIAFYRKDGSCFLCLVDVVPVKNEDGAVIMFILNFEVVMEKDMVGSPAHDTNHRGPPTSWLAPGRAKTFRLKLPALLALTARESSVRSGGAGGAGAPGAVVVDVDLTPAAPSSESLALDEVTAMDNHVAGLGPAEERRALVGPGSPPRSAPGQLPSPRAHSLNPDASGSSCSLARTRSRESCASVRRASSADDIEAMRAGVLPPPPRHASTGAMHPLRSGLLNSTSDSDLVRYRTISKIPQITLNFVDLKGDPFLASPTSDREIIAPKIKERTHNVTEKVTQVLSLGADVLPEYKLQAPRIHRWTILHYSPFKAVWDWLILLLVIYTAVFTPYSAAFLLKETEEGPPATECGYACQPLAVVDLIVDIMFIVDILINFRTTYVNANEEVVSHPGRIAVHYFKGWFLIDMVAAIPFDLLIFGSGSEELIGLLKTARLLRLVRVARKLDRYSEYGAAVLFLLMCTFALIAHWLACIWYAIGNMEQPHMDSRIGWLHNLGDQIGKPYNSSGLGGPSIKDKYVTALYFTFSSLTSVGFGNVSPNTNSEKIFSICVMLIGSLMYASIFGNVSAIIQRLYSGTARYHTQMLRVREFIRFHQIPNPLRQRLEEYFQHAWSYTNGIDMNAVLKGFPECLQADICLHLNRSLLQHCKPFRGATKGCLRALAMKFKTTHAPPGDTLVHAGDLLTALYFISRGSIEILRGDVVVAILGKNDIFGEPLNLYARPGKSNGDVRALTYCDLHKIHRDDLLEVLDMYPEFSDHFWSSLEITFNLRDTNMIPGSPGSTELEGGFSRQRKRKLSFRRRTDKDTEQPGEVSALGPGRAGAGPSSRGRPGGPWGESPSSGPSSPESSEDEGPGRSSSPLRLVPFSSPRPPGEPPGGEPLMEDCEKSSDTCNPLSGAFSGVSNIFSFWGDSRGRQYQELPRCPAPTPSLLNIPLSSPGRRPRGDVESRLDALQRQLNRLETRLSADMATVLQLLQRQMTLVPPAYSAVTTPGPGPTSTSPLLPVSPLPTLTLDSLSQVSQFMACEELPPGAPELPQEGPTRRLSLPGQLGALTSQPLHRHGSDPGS

## C=CC(=O)N1C[C@H](C)N(c2nc(=O)n(-c3c(SC)ccnc3C(C)C)c3nc(-c4c(O)cccc4F)c(Cl)cc23)C[C@H]1C (atropisomer, axis not shown) [Embodiment 14-1, P-4-((2S,5R)-4-Acryloyl-2,5-dimethylpiperazin-1-yl)-6-chloro-7-(2-fluoro-6-hydroxyphenyl)-1-(2-isopropyl-4-(methylthio)pyridin-3-yl)pyrido[2,3-d]pyrimidin-2(1H)-one]
[1]
  IC50: > 30 µM
[2]; 0 min
  Residual rate (%) 0 min: 100.00%
[2]; 15 min
  Residual rate (%) 15 min: 99.15%
[2]; 30 min
  Residual rate (%) 30 min: 94.74%
[2]; 60 min
  Residual rate (%) 60 min: 89.14%
[2]; 120 min
  Residual rate (%) 120 min: 78.85%
[3]; 0 min
  Residual rate (%) 0 min: 100.00%
[3]; 15 min
  Residual rate (%) 15 min: 93.20%
[3]; 30 min
  Residual rate (%) 30 min: 98.32%
[3]; 60 min
  Residual rate (%) 60 min: 99.08%
[3]; 120 min
  Residual rate (%) 120 min: 96.46%
[4]; 0 min
  Residual rate (%) 0 min: 100.00%
[4]; 15 min
  Residual rate (%) 15 min: 105.42%
[4]; 30 min
  Residual rate (%) 30 min: 100.02%
[4]; 60 min
  Residual rate (%) 60 min: 99.12%
[4]; 120 min
  Residual rate (%) 120 min: 85.55%
[5]; 0 min
  Residual rate (%) 0 min: 100.00%
[5]; 15 min
  Residual rate (%) 15 min: 99.98%
[5]; 30 min
  Residual rate (%) 30 min: 98.79%
[5]; 60 min
  Residual rate (%) 60 min: 93.69%
[5]; 120 min
  Residual rate (%) 120 min: 86.16%
